In brackets after ≈: the same amount, converted by molar mass. Several values for one entry are separate records, joined by “and”; a condition that tells them apart may be missing. Equal entries are not always repeated.
Columns and labels:
Type in all cases: functional
Enterococcus faecium [1] = assay: Antimicrobial activity against Enterococcus faecium A9650
Enterococcus faecium [2] = assay: Antimicrobial activity against Enterococcus faecium A8948
Enterococcus faecium [3] = assay: Antimicrobial activity against Enterococcus faecium A9621 by broth microdilution method
Enterococcus faecium [4] = assay: Antimicrobial activity against Enterococcus faecium A8767
Streptococcus pneumoniae [5] = assay: Antimicrobial activity against Streptococcus pneumoniae 02J1175
Haemophilus influenzae [6] = assay: Antimicrobial activity against Haemophilus influenzae 54A1100
Haemophilus influenzae [7] = assay: Antimicrobial activity against Haemophilus influenzae A1950
Staphylococcus aureus [8] = assay: Antimicrobial activity against Staphylococcus aureus A7820
Enterococcus faecium [9] = assay: Antimicrobial activity against Enterococcus faecium A6349
Enterococcus faecium [10] = assay: Antimicrobial activity against vancomycin-susceptible Enterococcus faecium nosocomial isolate by broth microdilution method
Enterococcus faecium [11] = assay: Antimicrobial activity against vancomycin-resistant Enterococcus faecium nosocomial isolate
Streptococcus pyogenes [12] = assay: Antimicrobial activity against Streptococcus pyogenes
Streptococcus pyogenes [13] = assay: Antimicrobial activity against Streptococcus pyogenes harboring mef(A) gene
Legionella pneumophila = assay: Antimicrobial activity against Legionella pneumophila isolated from human respiratory tract by broth microdilution method
Chlamydia trachomatis = assay: Antimicrobial activity against Chlamydia trachomatis isolated from human respiratory tract by broth microdilution method
Chlamydia pneumoniae = assay: Antimicrobial activity against Chlamydophila pneumoniae isolated from human respiratory tract by broth microdilution method
Staphylococcus aureus [14] = assay: Antimicrobial activity against Staphylococcus aureus A7819 harboring G2576U mutation in 23S rRNA
Staphylococcus aureus [15] = assay: Antimicrobial activity against Staphylococcus aureus A8833 harboring U2500A mutation in 23S rRNA
Staphylococcus aureus [16] = assay: Antimicrobial activity against Staphylococcus aureus A8831 harboring U2500A mutation in 23S rRNA
Staphylococcus aureus [17] = assay: Antimicrobial activity against Staphylococcus aureus A7817
Staphylococcus aureus [18] = assay: Antimicrobial activity against Staphylococcus aureus A8761
Staphylococcus aureus [19] = assay: Antimicrobial activity against Staphylococcus aureus A8727
Staphylococcus hominis = assay: Antimicrobial activity against Staphylococcus hominis A7828
[20] = system: Staphylococcus epidermidis; assay: Antimicrobial activity against Staphylococcus epidermidis A8934
Staphylococcus capitis = assay: Antimicrobial activity against Staphylococcus capitis A8935
Staphylococcus aureus [21] = assay: Antimicrobial activity against Staphylococcus aureus pLXM1 harboring cfr gene
Enterococcus faecalis [22] = assay: Antimicrobial activity against Enterococcus faecalis ATCC 29212-P5 harboring G2576U mutation in 23S rRNA
Enterococcus faecalis [23] = assay: Antimicrobial activity against Enterococcus faecalis A6343
Enterococcus faecalis [24] = assay: Antimicrobial activity against Enterococcus faecalis A5962
Enterococcus faecalis [25] = assay: Antimicrobial activity against Enterococcus faecalis A7789
Enterococcus faecium [26] = assay: Antimicrobial activity against Enterococcus faecium A5959
Enterococcus faecium [27] = assay: Antimicrobial activity against Enterococcus faecium A5960
Enterococcus faecium [28] = assay: Antimicrobial activity against Enterococcus faecium A6345
Enterococcus faecium [29] = assay: Antimicrobial activity against Enterococcus faecium A6348 harboring G2576U mutation in 23S rRNA
Enterococcus faecium [30] = assay: Antimicrobial activity against Enterococcus faecium A6349 harboring G2576U mutation in 23S rRNA
Enterococcus faecium [31] = assay: Antimicrobial activity against Enterococcus faecium A8130
Streptococcus pneumoniae [32] = assay: Antimicrobial activity against Streptococcus pneumoniae PU1071099 harboring 65WR66 deletion in ribosomal protein L4 by broth microdilution method
Staphylococcus aureus [33] = assay: Antimicrobial activity against methicillin resistant Staphylococcus aureus 67-0
Staphylococcus aureus [34] = assay: Antimicrobial activity against methicillin-resistant Staphylococcus aureus BK 11118
Staphylococcus aureus [35] = assay: Antimicrobial activity against methicillin-resistant Staphylococcus aureus BK 11512
Enterococcus faecalis [36] = assay: Antimicrobial activity against vancomycin-resistant Enterococcus faecalis 03B1069
Streptococcus pneumoniae [37] = assay: Antimicrobial activity against Streptococcus pneumoniae 02J1258
Streptococcus pneumoniae [38] = assay: Antimicrobial activity against Streptococcus pneumoniae nosocomial isolate
Streptococcus pneumoniae [39] = assay: Antimicrobial activity against Streptococcus pneumoniae harboring erm(B) gene by broth microdilution method; details: Streptococcus pneumoniae; read-out: MIC
Streptococcus pneumoniae [40] = assay: Antimicrobial activity against Streptococcus pneumoniae harboring erm(B) and mef(A) gene
Streptococcus pneumoniae [41] = assay: Antimicrobial activity against Streptococcus pneumoniae harboring mef(A) gene
Streptococcus pneumoniae [42] = assay: Antimicrobial activity against Streptococcus pneumoniae ribosomal mutant
Moraxella catarrhalis = assay: Antimicrobial activity against Moraxella catarrhalis
Staphylococcus aureus [43] = assay: Antimicrobial activity against Staphylococcus aureus ATCC 29213
Staphylococcus aureus [44] = assay: Antimicrobial activity against Staphylococcus aureus pL150
Enterococcus faecalis [45] = assay: Antimicrobial activity against Enterococcus faecalis ATCC 29212
Enterococcus faecalis [46] = assay: Antimicrobial activity against Enterococcus faecalis A6350
[47] = Enterococcus faecium, read-out: MIC
[48] = Streptococcus pyogenes, read-out: MIC
[49] = Legionella pneumophila, read-out: MIC
[50] = Chlamydia trachomatis, read-out: MIC
[51] = Streptococcus pneumoniae, read-out: MIC

CC(=O)NC[C@H]1CN(c2ccc(N3CCOCC3)c(F)c2)C(=O)O1 [LINEZOLID]
MIC (Enterococcus faecium [1]): 16 µg/mL (≈ 47.4 µM) | MIC (Enterococcus faecium [2]): 8 µg/mL (≈ 23.7 µM) | MIC (Enterococcus faecium [3]): 64 µg/mL (≈ 190 µM) | MIC (Enterococcus faecium [4]): 8 µg/mL (≈ 23.7 µM) | MIC (Streptococcus pneumoniae [5]): 0.25 µg/mL (≈ 0.741 µM) | MIC (Haemophilus influenzae [6]): 16 µg/mL (≈ 47.4 µM) | MIC (Haemophilus influenzae [7]): 16 µg/mL (≈ 47.4 µM) | MIC (Staphylococcus aureus [8]): 64 µg/mL (≈ 190 µM) | MIC (Enterococcus faecium [9]): 16 µg/mL (≈ 47.4 µM) | MIC (Enterococcus faecium [10]): 8 µg/mL (≈ 23.7 µM) | MIC (Enterococcus faecium [10]; [47]): 4 µg/mL (≈ 11.9 µM) | MIC (Enterococcus faecium [11]): 4 µg/mL (≈ 11.9 µM) | MIC (Enterococcus faecium [11]; [47]): 2 µg/mL (≈ 5.93 µM) | MIC (Streptococcus pyogenes [12]): 2 µg/mL and 4 µg/mL | MIC (Streptococcus pyogenes [12]; [48]): 2 µg/mL (≈ 5.93 µM) | MIC (Streptococcus pyogenes [13]): 2 µg/mL and 4 µg/mL | MIC (Streptococcus pyogenes [13]; [48]): 2 µg/mL (≈ 5.93 µM) | MIC (Legionella pneumophila): 8 µg/mL (≈ 23.7 µM) | MIC (Legionella pneumophila; [49]): 4 µg/mL (≈ 11.9 µM) | MIC (Chlamydia trachomatis): 16 µg/mL (≈ 47.4 µM) | MIC (Chlamydia trachomatis; [50]): 8 µg/mL (≈ 23.7 µM) | MIC (Chlamydia pneumoniae): 1 µg/mL (≈ 2.96 µM) | MIC (Staphylococcus aureus [14]): 64 µg/mL (≈ 190 µM) | MIC (Staphylococcus aureus [15]): 64 µg/mL (≈ 190 µM) | MIC (Staphylococcus aureus [16]): 128 µg/mL (≈ 379 µM) | MIC (Staphylococcus aureus [17]): 64 µg/mL (≈ 190 µM) | MIC (Staphylococcus aureus [18]): 16 µg/mL (≈ 47.4 µM) | MIC (Staphylococcus aureus [19]): 8 µg/mL (≈ 23.7 µM) | MIC (Staphylococcus hominis): 64 µg/mL (≈ 190 µM) | MIC [20]: 32 µg/mL (≈ 94.9 µM) | MIC (Staphylococcus capitis): 16 µg/mL (≈ 47.4 µM) | MIC (Staphylococcus aureus [21]): 8 µg/mL (≈ 23.7 µM) | MIC (Enterococcus faecalis [22]): 32 µg/mL (≈ 94.9 µM) | MIC (Enterococcus faecalis [23]): 32 µg/mL (≈ 94.9 µM) | MIC (Enterococcus faecalis [24]): 32 µg/mL (≈ 94.9 µM) | MIC (Enterococcus faecalis [25]): 64 µg/mL (≈ 190 µM) | MIC (Enterococcus faecium [26]): 32 µg/mL (≈ 94.9 µM) | MIC (Enterococcus faecium [27]): 64 µg/mL (≈ 190 µM) | MIC (Enterococcus faecium [28]): 32 µg/mL (≈ 94.9 µM) | MIC (Enterococcus faecium [29]): 64 µg/mL (≈ 190 µM) | MIC (Enterococcus faecium [30]): 16 µg/mL (≈ 47.4 µM) | MIC (Enterococcus faecium [31]): 32 µg/mL (≈ 94.9 µM)

CC(=O)NC[C@H]1CN(c2ccc(-c3ccc(CNCc4cnn[nH]4)cc3)c(F)c2)C(=O)O1 [RADEZOLID]
MIC (Enterococcus faecium [1]): 0.5 µg/mL (≈ 1.14 µM) | MIC (Enterococcus faecium [2]): ≤ 0.25 µg/mL | MIC (Enterococcus faecium [3]): 4 µg/mL (≈ 9.12 µM) | MIC (Enterococcus faecium [4]): 2 µg/mL (≈ 4.56 µM) | MIC (Streptococcus pneumoniae [32]): 0.5 µg/mL (≈ 1.14 µM) | MIC (Staphylococcus aureus [33]): 1 µg/mL (≈ 2.28 µM) | MIC (Staphylococcus aureus [34]): 1 µg/mL (≈ 2.28 µM) | MIC (Staphylococcus aureus [35]): 2 µg/mL (≈ 4.56 µM) | MIC (Enterococcus faecalis [36]): 0.5 µg/mL (≈ 1.14 µM) | MIC (Streptococcus pneumoniae [37]): 0.25 µg/mL (≈ 0.57 µM) | MIC (Streptococcus pneumoniae [5]): 0.25 µg/mL (≈ 0.57 µM) | MIC (Haemophilus influenzae [6]): 0.5 µg/mL (≈ 1.14 µM) | MIC (Haemophilus influenzae [7]): 1 µg/mL (≈ 2.28 µM) | MIC (Staphylococcus aureus [8]): 16 µg/mL (≈ 36.5 µM) | MIC (Enterococcus faecium [9]): 0.5 µg/mL (≈ 1.14 µM) | MIC (Streptococcus pneumoniae [38]): 0.25 µg/mL (≈ 0.57 µM) | MIC (Streptococcus pneumoniae [38]; [51]): 0.125 µg/mL (≈ 0.285 µM) | MIC (Enterococcus faecium [10]): 0.5 µg/mL (≈ 1.14 µM) | MIC (Enterococcus faecium [10]; [47]): ≤ 0.25 µg/mL | MIC (Streptococcus pneumoniae [39]): ≤ 0.25 µg/mL | MIC (Streptococcus pneumoniae [40]): ≤ 0.25 µg/mL | MIC (Streptococcus pneumoniae [41]): 0.25 µg/mL (≈ 0.57 µM) | MIC (Streptococcus pneumoniae [41]; [51]): 0.125 µg/mL (≈ 0.285 µM) | MIC (Streptococcus pneumoniae [42]): ≤ 0.25 µg/mL | MIC (Moraxella catarrhalis): 0.5 µg/mL (≈ 1.14 µM) | MIC (Moraxella catarrhalis; Moraxella catarrhalis, read-out: MIC): ≤ 0.25 µg/mL | MIC (Legionella pneumophila): 2 µg/mL (≈ 4.56 µM) | MIC (Legionella pneumophila; [49]): 1 µg/mL (≈ 2.28 µM) | MIC (Chlamydia trachomatis): 1 µg/mL (≈ 2.28 µM) | MIC (Chlamydia trachomatis; [50]): 0.5 µg/mL (≈ 1.14 µM) | MIC (Chlamydia pneumoniae): 1 µg/mL (≈ 2.28 µM) | MIC (Staphylococcus aureus [43]): 1 µg/mL (≈ 2.28 µM) | MIC (Staphylococcus aureus [14]): 16 µg/mL (≈ 36.5 µM) | MIC (Staphylococcus aureus [15]): 32 µg/mL (≈ 73 µM) | MIC (Staphylococcus aureus [16]): 64 µg/mL (≈ 146 µM) | MIC (Staphylococcus aureus [17]): 32 µg/mL (≈ 73 µM) | MIC (Staphylococcus aureus [18]): 16 µg/mL (≈ 36.5 µM) | MIC (Staphylococcus aureus [19]): 4 µg/mL (≈ 9.12 µM) | MIC (Staphylococcus hominis): 8 µg/mL (≈ 18.2 µM) | MIC [20]: 2 µg/mL (≈ 4.56 µM) | MIC (Staphylococcus capitis): ≤ 0.25 µg/mL | MIC (Staphylococcus aureus [44]): 1 µg/mL (≈ 2.28 µM) | MIC (Staphylococcus aureus [21]): 2 µg/mL (≈ 4.56 µM) | MIC (Enterococcus faecalis [45]): ≤ 0.25 µg/mL | MIC (Enterococcus faecalis [22]): 1 µg/mL (≈ 2.28 µM) | MIC (Enterococcus faecalis [46]): 2 µg/mL (≈ 4.56 µM) | MIC (Enterococcus faecalis [23]): 4 µg/mL (≈ 9.12 µM) | MIC (Enterococcus faecalis [24]): 1 µg/mL (≈ 2.28 µM) | MIC (Enterococcus faecalis [25]): 4 µg/mL (≈ 9.12 µM) | MIC (Enterococcus faecium [26]): 4 µg/mL (≈ 9.12 µM) | MIC (Enterococcus faecium [27]): 4 µg/mL (≈ 9.12 µM) | MIC (Enterococcus faecium [28]): 4 µg/mL (≈ 9.12 µM) | MIC (Enterococcus faecium [29]): 4 µg/mL (≈ 9.12 µM) | MIC (Enterococcus faecium [30]): 0.5 µg/mL (≈ 1.14 µM) | MIC (Enterococcus faecium [31]): 2 µg/mL (≈ 4.56 µM)

Source: ChEMBL document CHEMBL1255340, “In vitro activities of the Rx-01 oxazolidinones against hospital and community pathogens” (2008)
